Source: patent publication US10316050B2, “PT (IV) complexes containing 4,4′-disubstituted-2,2′-bipyridyl and their use in cancer therapy” (THE BOARD OF REGENTS OF THE NEVADA SYSTEM OF HIGHER …, priority 2014, dated 2019)

How the values were obtained:
Format in all cases: cell-based, human
[1] = test system: A549 cells; assay: Hoechst/PI staining, confocal microscopy, A549
Procedure: Cells (100,000 to 125,000) were seeded into 35 mm dishes and incubated for 48 hours at 37° C. The cells were treated with control, Pt(IV)-4C, or Pt(IV)-5C, and while in the dark, the cells were washed 2× with 1 mL PBS. After washing, 1 mL of a 2 μg/mL Hoechst 33342 and 10 μg/mL PI solution (in PBS) was added, and the cells were incubated for 15 minutes at room temperature. Images were acquired within 5 minutes with a Nikon A1R confocal laser scanning microscopy system (CLSM) mounted on a Nikon Eclipse Ti. At least three random areas on each dish were imaged.
Analysis of Hoechst (Ho) and PI staining by confocal microscopy also was performed to detect cell death. PI stains cells with membrane damage, whereas Ho stains both live and apoptotic cells (although apoptotic cells have more intense Ho fluorescence). […] Additionally, unlike A549, the PI positive cells in Pt(IV)-4C treated cells were higher than Pt(IV)-5C treated cells.

[2] = test system: DU145 cells; assay: Annexin V/PI flow cytometry, DU145; conditions: DU145, 10 μM Pt(IV)-4C or 2.5 μM Pt(IV)-5C for 1 hour, analyzed 12 hours post treatment
Procedure: (§1) FIG. 11 is a series of graphs showing flow cytometry analysis of Annexin V/PI staining in A549 cells (top) and DU145 cells (bottom) treated with Pt(IV)-4C and Pt(IV)-5C. A549 cells were treated for 5 hours with control (left), 25 μM Pt(IV)-4C (center), or 10 μM Pt(IV)-5C (right), and analyzed 12 hours post treatment. DU145 cells were treated for 1 hour with control (left), 10 μM Pt(IV)-4C (center), or 2.5 μM Pt(IV)-5C (right) and analyzed 12 hours post treatment. Q1=PI+, represents necrotic cells; Q2=Annexin V/PI+, representing late apoptotic/necrotic cells; Q3=Annexin V+, representing early apoptotic cells; Q4=AnnexinV/PI−, representing live cells. Data are representative of three independent experiments.
(§2) Cells (˜50 to 60% confluent in 60 mm dishes) were treated as indicated with the platinum compound. After treatment, the floating cells were collected, and both attached and floating cells were washed 2× with PBS. The cells were resuspended in fresh medium and incubated as indicated. The cells were harvested (both the floating and attached cells were collected), counted, and pelleted. The cells were then washed two times with 5 mL of Ca^2+ and Mg^2+ free PBS. The pellets were then washed in 2.0 mL of 1× Annexin-V Binding buffer (BD Bioscience, San Jose, CAS) and centrifuged at 500×g for 5 minutes. […] A quantitative measure of these event shifts was accomplished by gating. […]

[3] = test system: phosphorylated H2AX (γH2AX) in DU145 cells; assay: Flow cytometry of phosphorylated H2AX, DU145; conditions: DU145, 10 μM Pt(IV)-4C or 2.5 μM Pt(IV)-5C for 2 hours, analyzed 7 hours post treatment
Procedure: FIG. 9 is a series of graphs plotting Pt(IV) complex-induced phosphorylation of H2AX in A549 cells (top panels) and DU145 cells (bottom panels). A549 cells were treated with control (left), 25 μM Pt(IV)-4C (center), or 7.5 μM Pt(IV)-5C (right) for 6 hours, and analyzed 12 hours post treatment. DU145 cells were treated for 2 hours with control (left), 10 μM Pt(IV)-4C (center), or 2.5 μM Pt(IV)-5C (right), and analyzed 7 hours post treatment. Data are representative of three independent experiments.
Cells (200,000 to 250,000) were seeded in 60 mm dishes and incubated at 37° C. in a humidified, 5% CO2 atmosphere for 2 days to reach ˜50-60% confluence. The cells were treated with the platinum complexes as indicated, the floating cells were collected, and both attached and floating cells were washed 2× with PBS. The cells were resuspended in fresh medium and incubated as indicated. After incubation, both the floating and attached cells were collected and fixed by incubation in 4% formaldehyde for 10 minutes at room temperature. The fixed cells were pelleted and permeabilized by incubation in 500 μL of ice-cold methanol at 4° C. for 10 minutes. The samples were stored at −20° C. until analysis. For analysis, the cells were pelleted and washed 2× with 1% BSA in PBS. […] After washing 2× with 1% BSA, the cells were resuspended in PBS and analyzed on a Becton Dickinson FACS Calibur. […]

[4] = test system: A549 cells; assay: Annexin V/PI flow cytometry, A549; conditions: A549, 25 μM Pt(IV)-4C or 10 μM Pt(IV)-5C for 5 hours, analyzed 12 hours post treatment
Procedure: as §1, §2

Compound | Hoechst (Ho) fluorescence compared to control [1] | PI fluorescence compared to control [1] | Annexin V/PI staining (apoptosis) [2] | level of phosphorylated H2AX (γH2AX) [3] | Annexin V/PI staining (apoptosis) [4]
CC(=O)[O][Pt]([Cl])([Cl])[O]C(C)=O.CCCCCOc1ccnc(-c2cc(OCCCCC)ccn2)c1 [Pt(IV)-5C, [Pt(IV)Cl2(OAc)2(4,4′-dipentoxy-2,2′-bipyridine)]] | increased Ho fluorescence | no difference | induce apoptosis | increase of γH2AX | induce apoptosis
[Pt(IV)Cl2(OAc)2(4,4′-dibutoxy-2,2′-bipyridine)] [Pt(IV)-4C] | increased Ho fluorescence | increased PI positive cells | induce apoptosis | increase of γH2AX | induce apoptosis
